From patent US7923578B2, “Method of manufacturing 3-(4-hydroxyphenyl)propanoic acid amide, its application in the manufacture of anti-aging compositions and anti-aging composition” (Instytut Chemii Bioorganicznej Pan, priority 2005, dated 2011)
“And” between values parts separate entries of the source, which are not always exact repeats. Identical values can stand only once.

Assays:
[1] = tested on: fibroblasts; test: Induction of cell proliferation (DNA synthesis, BrdU incorporation); type: cell-based, human; conditions: pre-treated fibroblasts
[2] = tested on: Fibroblast cells (SF25 p29); test: Lysosomal activity (Neutral Red Uptake assay); type: cell-based, human
Experimental: (§1) Test solution preparation: Stock solutions of 8 mM for the 3-p-hydroxyphenyl-propanoic acid amide were prepared by dissolving about 30 mg/ml in Hank's buffer to a final volume of 30 ml. In brief, the stock solutions were filter sterilized, stored at 4° C., and were used for experiments at their appropriate dilutions in cell culture media as required. Cell culture: All experiments were performed on mid- and late passage cultures of normal human adult skin fibroblast line, designated Senetek SNF25 (40-75% life span completed). In order to check the effects of test compounds on senescent cells, late passage cells with about 75% lifespan completed were used. SNF25 cell line was established from a mammary skin biopsy obtained from a young, non-smoking and healthy […] at the time of breast reduction operation. Normal culture conditions of medium (DMEM) containing antibiotics, 10% fetal calf serum, and incubation at 37° C., 5% CO2 with 95% humidity were used. The effects of the test chemicals were determined in the following conditions: Growth characteristics: Short-term growth experiments were performed using 24-well tissue culture plates (growth area 1.9 cm^2) and flat bottom 96 well plates (growth area 0.328 cm^2). Freshly prepared cell suspensions from mass cultures of SNF25 cells maintained in the lab were used. About 10,000 cells/well were seeded into 6 sets of 24-well plates. The cells were either allowed to attach and stabilize for 24 hours in normal culture medium or were directly added to the culture medium of a final concentration (range 40 μM to 500 μM). Culture medium was changed with the addition of test chemicals weekly. The numbers of cells were counted after different days of treatment in 2 wells from each concentration of the test chemical, by following the normal method of cell trypsinization and counting using a Coulter Counter. The third well in each category was fixed with cold methanol and stained with Giemsa stain for permanent record and for photography. The experiment was carried on until the cultures became fully confluent and no further growth was possible. Cell survival, toxicity and JC-1 staining: Cell survival after exposure to various doses was measured with the 3-(4,5 dimethylthiazol-2-yl)-2,5-diphenyltetrazolium bromide (MTT) assay. About 5,000 cells were seeded per well in a 96-well plate for 24 hours before the experiment. Cells were then treated with various doses of the compound to be tested. The wells were washed in Hank's and new medium was added. […] The absorbance was measured at 595 nm. […] The cultures were visually examined after 72 hours, and the number of viable cells and/or the total cell protein content determined, after 72 hours exposure, by the Neutral Red Uptake method. […]

[3] = tested on: middle aged dermal fibroblasts; test: Mitochondrial activity / cell survival (MTT assay); type: cell-based, human
Experimental: Test solution preparation: Stock solutions of 8 mM for the 3-p-hydroxyphenyl-propanoic acid amide were prepared by dissolving about 30 mg/ml in Hank's buffer to a final volume of 30 ml. In brief, the stock solutions were filter sterilized, stored at 4° C., and were used for experiments at their appropriate dilutions in cell culture media as required. Cell culture: All experiments were performed on mid- and late passage cultures of normal human adult skin fibroblast line, designated Senetek SNF25 (40-75% life span completed). In order to check the effects of test compounds on senescent cells, late passage cells with about 75% lifespan completed were used. […] The effects of the test chemicals were determined in the following conditions: Growth characteristics: Short-term growth experiments were performed using 24-well tissue culture plates (growth area 1.9 cm^2) and flat bottom 96 well plates (growth area 0.328 cm^2). […] The numbers of cells were counted after different days of treatment in 2 wells from each concentration of the test chemical, by following the normal method of cell trypsinization and counting using a Coulter Counter. […] Cell survival, toxicity and JC-1 staining: Cell survival after exposure to various doses was measured with the 3-(4,5 dimethylthiazol-2-yl)-2,5-diphenyltetrazolium bromide (MTT) assay. […] The absorbance was measured at 595 nm. […]

[4] = tested on: human dermal fibroblasts (SNF25); test: Cell attachment of human skin fibroblasts; type: cell-based
Experimental: as §1, with “The cells were either allowed to attach and stabilize for 24 hours in normal culture medium or were directly added to the culture medium of a final concentration (range 40 μM to 500 μM). Culture medium was changed with the addition of test chemicals weekly.” left out, “The third well in each category was fixed with cold methanol and stained with Giemsa stain for permanent record and for photography. The experiment was carried on until the cultures became fully confluent and no further growth was possible.” left out, “assay.” for “assay. About 5,000 cells were seeded per well in a 96-well plate for 24 hours before the experiment. Cells were then treated with various doses of the compound to be tested. The wells were washed in Hank's and new medium was added.”

[5] = tested on: SNF25 p 44 cells; test: JC-1 staining of mitochondrial potential by fluorescence microscopy; type: cell-based, human; conditions: pre-treatment for 3 days, all doses
Experimental: FIG. 3 presents the localization of JC-1 in SNF25 p44 cells using phloretamide by fluorescence microscopy.
Localization of JC-1 in SNF25 p 44 cells using phloretamide by fluorescence microscopy is shown on FIG. 3.
Staining for JC-1 was performed after phloretamide pre-treatment on dermal fibroblasts for a period of 3 days to see the mitochondrial potential.

[6] = tested on: human skin fibroblasts (SNF25 p 23); test: Short-term growth (one step growth curve, Coulter counting, Giemsa morphology); type: cell-based
Experimental: Test solution preparation: Stock solutions of 8 mM for the 3-p-hydroxyphenyl-propanoic acid amide were prepared by dissolving about 30 mg/ml in Hank's buffer to a final volume of 30 ml. In brief, the stock solutions were filter sterilized, stored at 4° C., and were used for experiments at their appropriate dilutions in cell culture media as required. Cell culture: All experiments were performed on mid- and late passage cultures of normal human adult skin fibroblast line, designated Senetek SNF25 (40-75% life span completed). In order to check the effects of test compounds on senescent cells, late passage cells with about 75% lifespan completed were used. SNF25 cell line was established from a mammary skin biopsy obtained from a young, non-smoking and healthy […] at the time of breast reduction operation. Normal culture conditions of medium (DMEM) containing antibiotics, 10% fetal calf serum, and incubation at 37° C., 5% CO2 with 95% humidity were used. The effects of the test chemicals were determined in the following conditions: Growth characteristics: Short-term growth experiments were performed using 24-well tissue culture plates (growth area 1.9 cm^2) and flat bottom 96 well plates (growth area 0.328 cm^2). Freshly prepared cell suspensions from mass cultures of SNF25 cells maintained in the lab were used. About 10,000 cells/well were seeded into 6 sets of 24-well plates. The cells were either allowed to attach and stabilize for 24 hours in normal culture medium or were directly added to the culture medium of a final concentration (range 40 μM to 500 μM). Culture medium was changed with the addition of test chemicals weekly. The numbers of cells were counted after different days of treatment in 2 wells from each concentration of the test chemical, by following the normal method of cell trypsinization and counting using a Coulter Counter. The third well in each category was fixed with cold methanol and stained with Giemsa stain for permanent record and for photography. The experiment was carried on until the cultures became fully confluent and no further growth was possible. Cell survival, toxicity and JC-1 staining: Cell survival after exposure to various doses was measured with the 3-(4,5 dimethylthiazol-2-yl)-2,5-diphenyltetrazolium bromide (MTT) assay. About 5,000 cells were seeded per well in a 96-well plate for 24 hours before the experiment. Cells were then treated with various doses of the compound to be tested. The wells were washed in Hank's and new medium was added. After three days, MTT (Sigma, M2128) was added at 0.5 mg/ml in medium. After 4 h, MTT was removed and isopropanol and HCl were added to dissolve the MTT crystals for 12-16 h. The absorbance was measured at 595 nm. Lysosomal activity: Neutral Red is preferentially taken up into the lysosomes of the cell. Fibroblast cells were maintained in culture and exposed to test compounds over a range of concentrations. The cultures were visually examined after 72 hours, and the number of viable cells and/or the total cell protein content determined, after 72 hours exposure, by the Neutral Red Uptake method. Individual wells of a 96-well tissue culture microtiter plate were inoculated with 0.2 ml of the appropriate media containing cells (usually 3×10^3 cells). After 1 day of incubation, the media were removed and replaced with unamended (control) medium or with medium amended with varied concentrations of the compound to be tested. […]

[7] = tested on: Late passage human skin fibroblasts; test: Cytoskeletal organization and morphology of late passage cells; type: cell-based
Experimental: as §1, with “The cells were either allowed to attach and stabilize for 24 hours in normal culture medium or were directly added to the culture medium of a final concentration (range 40 μM to 500 μM). Culture medium was changed with the addition of test chemicals weekly.” left out, “The third well in each category was fixed with cold methanol and stained with Giemsa stain for permanent record and for photography. The experiment was carried on until the cultures became fully confluent and no further growth was possible.” left out, “assay.” for “assay. About 5,000 cells were seeded per well in a 96-well plate for 24 hours before the experiment. Cells were then treated with various doses of the compound to be tested. The wells were washed in Hank's and new medium was added.”

[8] = tested on: late passage cells; test: Cell survival of late passage (senescent) cells, Coulter counting; type: cell-based, human
Experimental: Effects on late passage cells—Cytoskeletal organization: Late passage cells with more than 75% lifespan were treated with different doses of phloretamide in order to see if this treatment could revert any of the age related changes. […] Effect of 3-p-hydroxyphenyl-propionic acid amide on the morphology of late passage cells after 7 and 14 days—Morphology of senescent cells: Late passage human skin fibroblasts (about 75% life span completed) were treated with various doses of phloretamide to see whether this treatment could reverse age-related alterations in their morphology. […] Heterogeneous behavior was not observed in the cells. […] Cell survival: Equal numbers of senescent cells were seeded in separate flasks and were treated with different concentrations of phloretamide. Cell numbers were determined by using a Coulter counter after trypsinization and resuspension of cells after 7 and 14 days of treatment.

appearance (morphology) of cells ([6]; at higher doses, after 11 days of treatment (FIG. 2 E)): larger, irregularly arranged and sparse
SMILES: NC(=O)CCc1ccc(O)cc1 [phloretamide, 3-(4-hydroxyphenyl)propanoic acid amide]
DNA synthesis in comparison to the controls [1]: no significant differences
staining pattern of the cells (lysosomal staining) ([2]; 40 μM and 80 μM, FIG. 4): showed autophagy
decrease in the lysosomal autophagy ([2]; dose range of 40 μM and 80 μM): 15-40%
lysosomal rate compared to the untreated ([2]; up to 200 μM, 72 hours exposure): decreased in a dose dependent manner
lysosomal activity ([2]; upwards of 40 μM): decrease in lysosomal activity was observed
effects on the activity of mitochondria ([3]; until a dose of 500 μM, 3 days, MTT): no negative effects
induction of cell growth ([3]; within the tested range of doses (0, 01 μM-500 μM)): no induction of cell growth
percentage of cells attached to the surface of the culture flask ([4]; after six hours of treatment, 40 11 M to 2 mM): not affected to any significant extent
improved / enhanced cell attachment ([4]; at 40 μM and 80 μM): 20-30% and 10-20%
immediate toxicity to human dermal fibroblasts ([4]; six hours of treatment): not immediately toxic
JC-1 staining (mitochondrial potential) [5]: polarized mitochondria
JC-1 staining (mitochondrial potential) ([5]; listed as 3-p-hydroxyphenyl-propionic acid amide): Punctate orange-red fluorescent staining was observed
inhibition at 500 µM ([6]; Homo sapiens, Skin fibroblast, 264 h, higher concentrations (500 μM), 11 days, read-out: inhibition of cellular growth): > 50%
increase in cell numbers ([6]; after 11 days of treatment, 40 μM to 200 μM): 10-20%
doses at which cytotoxicity of cells was seen ([6]; after 11 days of treatment, morphology): greater than 200 μM
stimulation of cell growth ([6]; at 40 μM and 80 μM, one step growth curve, up to 11 days): stimulation of cell growth
improvement in the late passage cells ([7]; after 14 days of treatment): couldn't find an improvement
appearance (morphology) of late passage cells ([7]; after seven and fourteen days of treatment, about 75% life span completed): subtle differences
actin staining pattern, treated versus untreated cells ([7]; middle-aged cells after 3 days): no obvious differences
numbers of surviving late passage cells ([8]; after one and two weeks): almost similar without much difference
cell growth of late passage cells ([8]; at higher doses, after 7 and 14 of treatment): dose dependent reduction
